Assay results reported in patent publication US6528532B1, “Urea derivatives as HIV aspartyl protease inhibitors” (Pharmacor Inc., priority 2002, dated 2003).

Target: HIV protease (Human immunodeficiency virus type 1 group M subtype B, UniProt P04585)
Experiment: Enzymatic (FRET fluorometric) assay for determining the inhibition constant (Ki) of compounds targeting the HIV protease
Type: biochemical
Settings: FRET substrate (EDANS/DABCYL), equation of Henderson; read-out: Ki
Source text: Enzymatic Assay for Determining the Inhibition Constant (Ki) of Synthetic Compounds Targeting the HIV Protease
This is a fluorometric assay based on the cleavage by protease of a substrate carrying a donor group (EDANS) and an acceptor group (DABCYL) on each side of the cleavage site, interacting together through fluorescence resonance energy transfer (FRET) as described by Matayoshi et al. (Science 247:[…], 1990).
After calculation of Vo and Vi, the inhibition constant (Ki) of the compound is determined using the equation of Henderson: [formula]
where Vo=the enzyme's initial velocity
Vi=the enzyme velocity in the presence of the inhibitory compound,
[I]=inhibitor concentration, [S]=substrate concentration,
Km=Michaelis-Menten constant and Kiapp=apparent Ki
Graphs are traced and the Ki determined using GraphPad Prism software v. 3.0.

SMILES	Ki [nM]
Cc1ccc(S(=O)(=O)N(CC(C)C)[C@H](CO)CCCCNC(=O)N(Cc2ccccc2)Cc2cccc(N)c2)cc1 [Example 63, (2S) 2-N-Isobutyl-2-N-(4-methylbenzenesulfonyl)-6-N-[N′-(3-aminobenzyl)-N′-benzylaminocarbonyl]-2,6-diaminohexanol]	54
Cc1ccc(S(=O)(=O)N(CC(C)C)[C@H](CO)CCCCNC(=O)N(Cc2ccccc2)Cc2ccc(N)cc2)cc1 [Example 64, (2S) 2-N-Isobutyl-2-N-(4-methylbenzenesulfonyl)-6-N-[N′-(4-aminobenzyl)-N′-benzylaminocarbonyl]-2,6-diaminohexanol]	21
CC(C)CN([C@H](CO)CCCCNC(=O)N[C@@H](Cc1c[nH]c2ccccc12)C(=O)O)S(=O)(=O)c1ccc(N)cc1 [Example 65, (2S,2′S) 2-N-(4-Aminobenzenesulfonyl)-2-N-isobutyl-6-N-(S-tryptophanyl-N′-carbonyl)-2,6-diaminohexanol]	> 300
CC(C)CN([C@H](CO)CCCCNC(=O)N(Cc1ccc(F)cc1)C1CCCCC1)S(=O)(=O)c1ccc(N)cc1 [Example 66, (2S) 2-N-(4-Aminobenzenesulfonyl)-2-N-isobutyl-6-N-[N′-cyclohexyl-N′-(4-fluorobenzyl)aminocarbonyl]-2,6-diaminohexanol]	175
CC(C)CN([C@H](CO)CCCCNC(=O)N(Cc1ccccc1)Cc1ccc(F)cc1)S(=O)(=O)c1ccc(N)cc1 [Example 68, (2S) 2-N-(4-Aminobenzenesulfonyl)-2-N-isobutyl-6-N-[N′-benzyl-N′-(4-fluorobenzyl)aminocarbonyl]-2,6-diaminohexanol]	3.3
CC(C)CN([C@H](CO)CCCCNC(=O)N(CCc1cccs1)Cc1ccc(F)cc1)S(=O)(=O)c1ccc(N)cc1 [Example 69, (2S) 2-N-(4-Aminobenzenesulfonyl)-2-N-isobutyl-6-N-[N′-(4-fluorobenzyl)-N′-(2-thiophenethyl)aminocarbonyl]-2,6-diaminohexanol]	34
CC(C)CN([C@H](CO)CCCCNC(=O)N(Cc1ccc(F)cc1)Cc1cccnc1)S(=O)(=O)c1ccc(N)cc1 [Example 70, (2S) 2-N-(4-Aminobenzenesulfonyl)-2-N-isobutyl-6-N-[N′-(4-fluorobenzyl)-N′-(3-picolyl)aminocarbonyl]-2,6-diaminohexanol]	30
CC(C)CN([C@H](CO)CCCCNC(=O)N(Cc1cccc(F)c1)C1CCCCC1)S(=O)(=O)c1ccc(N)cc1 [Example 71, (2S) 2-N-(4-Aminobenzenesulfonyl)-2-N-isobutyl-6-N-[N′-cyclohexyl-N′-(3-fluorobenzyl)aminocarbonyl]-2,6-diaminohexanol]	235
CC(C)CN([C@H](CO)CCCCNC(=O)NCc1ccc2c(c1)OCO2)S(=O)(=O)c1ccc(N)cc1 [Example 74, (2S) 2-N-(4-Aminobenzenesulfonyl)-2-N-isobutyl-6-N-piperonylaminocarbonyl-2,6-diaminohexanol]	22
CC(C)CN([C@H](CO)CCCCNC(=O)N(Cc1ccc2c(c1)OCO2)Cc1cccs1)S(=O)(=O)c1ccc(N)cc1 [Example 75, (2S) 2-N-(4-Aminobenzenesulfonyl)-2-N-isobutyl-6-N-[N′-(2-thiophenemethyl)-N′-piperonylaminocarbonyl]-2,6-diaminohexanol]	2
CC(C)CN([C@H](CO)CCCCNC(=O)N(Cc1ccsc1)Cc1ccc2c(c1)OCO2)S(=O)(=O)c1ccc(N)cc1 [Example 81, (2S) 2-N-(4-Aminobenzenesulfonyl)-2-N-isobutyl-6-N-[N′-(3-thiophenemethyl)-N′-piperonylaminocarbonyl]-2,6-diaminohexanol]	6.3
COc1ccc(CN(Cc2ccc3c(c2)OCO3)C(=O)NCCCC[C@@H](CO)N(CC(C)C)S(=O)(=O)c2ccc(N)cc2)cc1 [Example 83, (2S) 2-N-(4-Aminobenzenesulfonyl)-2-N-isobutyl-6-N-[N′-(4-methoxybenzyl)-N′-piperonylaminocarbonyl]-2,6-diaminohexanol]	2.2
CC(C)CN([C@H](CO)CCCCNC(=O)N(Cc1ccc([N+](=O)[O-])cc1)Cc1ccc2c(c1)OCO2)S(=O)(=O)c1ccc(N)cc1 [Example 84, (2S) 2-N-(4-Aminobenzenesulfonyl)-2-N-isobutyl-6-N-[N′-(4-nitrobenzyl)-N′-piperonylaminocarbonyl]-2,6-diaminohexanol]	2
CC(C)CCN([C@H](CO)CCCCNC(=O)N(Cc1ccc([N+](=O)[O-])cc1)Cc1ccc2c(c1)OCO2)S(=O)(=O)c1ccc(N)cc1 [Example 89, (2S) 2-N-(4-Aminobenzenesulfonyl)-2-N-(3-methylbutyl)-6-N-[N′-(4-nitrobenzyl)-N′-piperonylaminocarbonyl]-2,6-diaminohexanol]	2.2
CC(C)CN([C@H](CO)CCCCNC(=O)N(Cc1ccc(C(F)(F)F)cc1)Cc1cccc2c1OCO2)S(=O)(=O)c1ccc(N)cc1 [Example 90, (2S) 2-N-(4-Aminobenzenesulfonyl)-2-N-isobutyl-6-N-[N′-(4-trifluoromethylbenzyl)-N′-(2,3-methylenedioxy)benzylaminocarbonyl]-2,6-diaminohexanol]	8.9
CC(C)CN([C@H](CO)CCCCNC(=O)N(Cc1ccc(C(F)(F)F)cc1)Cc1ccc2c(c1)OCO2)S(=O)(=O)c1ccc(N)cc1 [Example 92, (2S) 2-N-(4-Aminobenzenesulfonyl)-2-N-isobutyl-6-N-[N′-(4-trifluoromethylbenzyl)-N′-piperonylaminocarbonyl]-2,6-diaminohexanol]	2.5
CC(C)CCN([C@H](CO)CCCCNC(=O)N(Cc1ccc(C(F)(F)F)cc1)Cc1ccc2c(c1)OCO2)S(=O)(=O)c1ccc(N)cc1 [Example 94, (2S) 2-N-(4-Aminobenzenesulfonyl)-2-N-(3-methylbutyl)-6-N-[N′-(4-trifluoromethylbenzyl)-N′-piperonylaminocarbonyl]-2,6-diaminohexanol]	3
CCC(C)CN(C(CO)CCCCNC(=O)N(Cc1ccccc1)Cc1cccc2c1OCO2)S(=O)(=O)c1ccc(N)cc1 [Example 97, (2S) 2-N-(4-Aminobenzenesulfonyl)-2-N-(2-methylbutyl)-6-N-[N′-benzyl-N′-(2,3-methylenedioxy)benzylaminocarbonyl]-2,6-diaminohexanol]	21
CCC(C)CN(C(CO)CCCCNC(=O)N(Cc1ccc2c(c1)OCO2)Cc1cccs1)S(=O)(=O)c1ccc(N)cc1 [Example 99, (2S) 2-N-(4-Aminobenzenesulfonyl)-2-N-(2-methylbutyl)-6-N-[N′-(2-thiophenemethyl)-N′-piperonylaminocarbonyl]-2,6-diaminohexanol]	24

System: not listed separately
Experiment: in vitro
Type: cell-based
Settings: human
Method: To evaluate the EC50 of our compounds, various drug concentrations are incubated with the infected cell for six days and then the metabolic activity of the cells is monitored by the MTT assay. (See A. J. Japour et al, Antimicrobial Agents and Chemotherapy, 37, 1095-1101, 1993 and R. Pauwels et al. Journal of Virological Methods, 20, 309-321, 1988).
We use the laboratory viral strain NL4.3 as wild type virus and the cell line used is MT-4 which is a T-cell line highly sensitive to HIV-1. We also use some WT clinical strains. To address the resistance issue we assay the inhibitors with NL4.3 mutants which are designed to be resistant to specific commercially available inhibitors.
The same MTT assay is used to evaluate the CCIC50 (cell culture IC50) of our compounds except that the virus is omitted.

SMILES	IC50 at 6 days [µM]
CC(C)CCN([C@H](CO)CCCCNC(=O)N(Cc1ccncc1)Cc1ccc2c(c1)OCO2)S(=O)(=O)c1ccc(N)cc1 [Example 95, (2S) 2-N-(4-Aminobenzenesulfonyl)-2-N-(3-methylbutyl)-6-N-[N′-(4-picolyl)-N′-piperonylaminocarbonyl]-2,6-diaminohexanol]	28.8
CC(C)CCN([C@H](CO)CCCCNC(=O)N(Cc1ccc(F)cc1)Cc1ccc2c(c1)OCO2)S(=O)(=O)c1ccc(N)cc1 [Example 102, (2S) 2-N-(4-Aminobenzenesulfonyl)-2-N-(3-methylbutyl)-6-N-[N′-(4-fluorobenzyl)-N′-piperonylaminocarbonyl]-2,6-diaminohexanol]	24.4
